Assay results published in patent US5246989A, “Photochromic compound, composition and use thereof” (priority 1990, dated 1993).

Columns and labels:
[1] = Photochromic characteristics of 2 mm molded thermosetting resin piece containing the spiroxazine; assay type: physicochemical
Experimental: The compound synthesized in Example 1, which was represented by the following formula: [drawing 286] was dissolved and dispersed in polymethyl methacrylate with the aid of benzene, and a cast film was prepared on a slide glass sheet (11.2 cm×3.7 cm) so that the concentration of the compound in the film was 1.0×10^-4 mol/g and the thickness of the film was 0.1 mm. The photochromic film was irradiated with rays of a mercury lamp (SHL-100 supplied by Toshiba) located 10 cm apart from the film at 35° C.+1° C. for 60 seconds to effect coloration in the film, and the photochromic characteristics were examined with respect to items described below.
Maximum absorption wavelength (λmax):
The maximum absorption wavelength λmax of the colored film was determined by using a spectrophotometer (220 A supplied by Hitachi).
After 60 seconds' irradiation under the above-mentioned conditions, the absorbance at the maximum absorption wavelength was measured.
The absorbance at the maximum absorption wavelength of the unirradiated film was measured. Half-value period t^1/2 :
After 60 seconds' irradiation, the time required for reduction of the absorbance of the film to 1/2 of [ε(60 seconds)-ε(0 second)] was measured.
0.4 parts by weight of the spiroxazine synthesized in Example 1 was added to a composition of 70 parts by weight of chlorostyrene with 30 parts by weight of 2,2-bis(3,5-dibromo-4-methacryloyloxyethoxyphenyl) propane. One part by weight of perbutyl ND was added to the composition as an initiator of radical polymerization and was sufficiently mixed. The mixture liquid was casted into a mold comprising a glass plate and a gasket made of an ethylene-vinyl acetate copolymer and was polymerized in the mold. The mold was placed in an air oven. Polymerization was carried out by gradually elevating the temperature of the air oven from 30° C. to 90° C. for 18 hours and keeping it at 90° C. over a period of 2 hours. After the termination of the polymerization, the mold was removed from the air oven. After the mold was allowed to cool, the polymer molded piece was removed from the glass of the mold.
The photochromic characteristics of the obtained molded piece having a thickness of 2 mm was measured in the same method as Example 65.
Excepting that the kinds and amounts of the monomers and the spiroxazine used in Example 129 were changed and polymerization was carried out by a known means depending on the monomers, Examples 130 to 144 are identical with Example 129.

[2] = Photochromic characteristics of cast polymethyl methacrylate film (coloration under mercury lamp, fading); assay type: physicochemical; details: PMMA film, 1.0×10^-4 mol/g, 0.1 mm, 35° C.
[3] = Example 129: BMDBP/c1-st (30/70), compound 0.4 parts, 2 mm
[4] = Example 130: ADC (100), compound 0.001 parts
[5] = Example 131: TMP-TAC(100), compound 0.4 parts
[6] = Example 132: BADBP/DAP (60/40), compound 0.4 parts
[7] = Example 133: BMDBP/st (50/50), compound 10 parts
[8] = Example 134: DCIPF/st (70/30), compound 70 parts
[9] = Example 135: EGDMA/st (50/50), compound 30 parts
[10] = Example 136: monomer composition drawn as drawing 288, compound 1.0 parts
[11] = Example 137: monomer composition drawn as drawing 289, compound 0.6 parts
[12] = Example 138: DVB/PETTP(60/40), compound 0.03 parts
[13] = Example 139: XIC/DME (58/42), compound 0.2 parts
[14] = Example 140: XIC/HPA/DVB (10/50/40), compound 0.4 parts
[15] = Example 141: MMA/DEGDMA (70/30), compound 0.1 parts
[16] = Example 142: BADBPO/TBBM/DAP (50/30/20), compound 0.1 parts
[17] = Example 143: HEMA/XIC/BMA (30/20/50), compound 0.1 parts
[18] = Example 144: DEGDMA/BMA (40/60), compound 0.1 parts

For `CN1c2ccccc2C2(CCCCC2)C12C=Nc1ccc3ccccc3c1O2` (stereo not drawn) [Compound 1], the t1/2 [1, 3] was 20 s, the “ε(60 sec)-ε(0 sec)” value [1, 3] was 1.6 and the λmax [1, 3] was 604 nm. For the same molecule, the t1/2 [1, 4] was 24 s, the “ε(60 sec)-ε(0 sec)” value [1, 4] was 0.9 and the λmax [1, 4] was 607 nm. For the same molecule, the t1/2 [1, 5] was 28 s, the “ε(60 sec)-ε(0 sec)” value [1, 5] was 1.5 and the λmax [1, 5] was 607 nm. For the same molecule, the t1/2 [1, 6] was 21 s, the “ε(60 sec)-ε(0 sec)” value [1, 6] was 1.5 and the λmax [1, 6] was 606 nm. The t1/2 [1, 7] was 20 s, the “ε(60 sec)-ε(0 sec)” value [1, 7] was 1.7 and the λmax [1, 7] was 604 nm. For the same molecule, the t1/2 [1, 8] was 18 s, the “ε(60 sec)-ε(0 sec)” value [1, 8] was 1.8 and the λmax [1, 8] was 604 nm. The t1/2 [1, 9] was 19 s, the “ε(60 sec)-ε(0 sec)” value [1, 9] was 1.7 and the λmax [1, 9] was 604 nm. The t1/2 [1, 10] was 20 s, the “ε(60 sec)-ε(0 sec)” value [1, 10] was 1.6 and the λmax [1, 10] was 601 nm. The t1/2 [1, 11] was 22 s, the “ε(60 sec)-ε(0 sec)” value [1, 11] was 1.6 and the λmax [1, 11] was 601 nm. For the same molecule, the t1/2 [1, 12] was 22 s, the “ε(60 sec)-ε(0 sec)” value [1, 12] was 1.5 and the λmax [1, 12] was 606 nm. For the same molecule, the t1/2 [1, 13] was 19 s, the “ε(60 sec)-ε(0 sec)” value [1, 13] was 1.5 and the λmax [1, 13] was 604 nm. The t1/2 [1, 14] was 19 s, the “ε(60 sec)-ε(0 sec)” value [1, 14] was 1.6 and the λmax [1, 14] was 604 nm. The t1/2 [1, 15] was 18 s, the “ε(60 sec)-ε(0 sec)” value [1, 15] was 1.6 and the λmax [1, 15] was 601 nm. The t1/2 [1, 16] was 23 s, the “ε(60 sec)-ε(0 sec)” value [1, 16] was 1.6 and the λmax [1, 16] was 606 nm. The t1/2 [1, 17] was 22 s, the “ε(60 sec)-ε(0 sec)” value [1, 17] was 1.6 and the λmax [1, 17] was 601 nm. The t1/2 [1, 18] was 19 s, the “ε(60 sec)-ε(0 sec)” value [1, 18] was 1.6 and the λmax [1, 18] was 601 nm. The t1/2 (half-value period of absorbance after irradiation) ([2]; after 60 seconds' irradiation) was 18 s, the “λ max (maximum absorption wavelength of the colored film)” value ([2]; mercury lamp 60 seconds) was 601 and the “ε (60 seconds)-ε (0 second)” value ([2]; mercury lamp 60 seconds, absorbance at λmax) was 1.4.
